Results reported in ChEMBL document CHEMBL5518235, “Identification of Novel Series of Potent and Selective Relaxin Family Peptide Receptor 1 (RXFP1) Agonists” (J Med Chem, 2024).
Active and inactive are the calls of the source. The calls are words filed in the database; no cut-off is given here.

Assays:
Relaxin receptor 1 = target: T1, Relaxin receptor 1 (Homo sapiens, UniProt Q9HBX9); assay: Agonist activity at human RXFP1 expressed in T-Rex-CHO-K1 cells assessed as stimulation of cAMP production incubated for 45 mins by HTRF assay; format: functional, cell-based
T1 sequence (Q9HBX9 whole entry): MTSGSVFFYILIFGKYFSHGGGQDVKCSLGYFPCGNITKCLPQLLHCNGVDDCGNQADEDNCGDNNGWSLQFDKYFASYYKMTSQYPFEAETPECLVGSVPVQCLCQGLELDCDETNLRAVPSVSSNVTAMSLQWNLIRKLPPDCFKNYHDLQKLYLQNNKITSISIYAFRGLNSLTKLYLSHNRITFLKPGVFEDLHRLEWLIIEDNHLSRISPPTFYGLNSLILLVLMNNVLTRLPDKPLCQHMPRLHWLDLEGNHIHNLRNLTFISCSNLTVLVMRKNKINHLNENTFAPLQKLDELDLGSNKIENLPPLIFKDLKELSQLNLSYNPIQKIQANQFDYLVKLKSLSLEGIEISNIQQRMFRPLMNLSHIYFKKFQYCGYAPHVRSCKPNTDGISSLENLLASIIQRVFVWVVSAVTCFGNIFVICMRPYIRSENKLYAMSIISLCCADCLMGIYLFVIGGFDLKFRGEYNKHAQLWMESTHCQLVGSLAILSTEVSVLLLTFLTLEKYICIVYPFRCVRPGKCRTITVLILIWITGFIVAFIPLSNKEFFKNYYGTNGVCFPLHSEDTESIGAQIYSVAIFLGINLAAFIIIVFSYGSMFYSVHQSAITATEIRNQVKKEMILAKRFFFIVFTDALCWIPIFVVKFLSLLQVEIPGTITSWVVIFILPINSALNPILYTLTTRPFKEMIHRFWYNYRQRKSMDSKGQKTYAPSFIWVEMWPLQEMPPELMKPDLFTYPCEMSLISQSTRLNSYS

[1] = target: Sodium channel protein type 5 subunit alpha (Homo sapiens, UniProt Q14524); assay: Inhibition of human Nav1.5 by automated electrophysiology recording; format: toxicity
Sequence of Sodium channel protein type 5 subunit alpha (Q14524 whole entry): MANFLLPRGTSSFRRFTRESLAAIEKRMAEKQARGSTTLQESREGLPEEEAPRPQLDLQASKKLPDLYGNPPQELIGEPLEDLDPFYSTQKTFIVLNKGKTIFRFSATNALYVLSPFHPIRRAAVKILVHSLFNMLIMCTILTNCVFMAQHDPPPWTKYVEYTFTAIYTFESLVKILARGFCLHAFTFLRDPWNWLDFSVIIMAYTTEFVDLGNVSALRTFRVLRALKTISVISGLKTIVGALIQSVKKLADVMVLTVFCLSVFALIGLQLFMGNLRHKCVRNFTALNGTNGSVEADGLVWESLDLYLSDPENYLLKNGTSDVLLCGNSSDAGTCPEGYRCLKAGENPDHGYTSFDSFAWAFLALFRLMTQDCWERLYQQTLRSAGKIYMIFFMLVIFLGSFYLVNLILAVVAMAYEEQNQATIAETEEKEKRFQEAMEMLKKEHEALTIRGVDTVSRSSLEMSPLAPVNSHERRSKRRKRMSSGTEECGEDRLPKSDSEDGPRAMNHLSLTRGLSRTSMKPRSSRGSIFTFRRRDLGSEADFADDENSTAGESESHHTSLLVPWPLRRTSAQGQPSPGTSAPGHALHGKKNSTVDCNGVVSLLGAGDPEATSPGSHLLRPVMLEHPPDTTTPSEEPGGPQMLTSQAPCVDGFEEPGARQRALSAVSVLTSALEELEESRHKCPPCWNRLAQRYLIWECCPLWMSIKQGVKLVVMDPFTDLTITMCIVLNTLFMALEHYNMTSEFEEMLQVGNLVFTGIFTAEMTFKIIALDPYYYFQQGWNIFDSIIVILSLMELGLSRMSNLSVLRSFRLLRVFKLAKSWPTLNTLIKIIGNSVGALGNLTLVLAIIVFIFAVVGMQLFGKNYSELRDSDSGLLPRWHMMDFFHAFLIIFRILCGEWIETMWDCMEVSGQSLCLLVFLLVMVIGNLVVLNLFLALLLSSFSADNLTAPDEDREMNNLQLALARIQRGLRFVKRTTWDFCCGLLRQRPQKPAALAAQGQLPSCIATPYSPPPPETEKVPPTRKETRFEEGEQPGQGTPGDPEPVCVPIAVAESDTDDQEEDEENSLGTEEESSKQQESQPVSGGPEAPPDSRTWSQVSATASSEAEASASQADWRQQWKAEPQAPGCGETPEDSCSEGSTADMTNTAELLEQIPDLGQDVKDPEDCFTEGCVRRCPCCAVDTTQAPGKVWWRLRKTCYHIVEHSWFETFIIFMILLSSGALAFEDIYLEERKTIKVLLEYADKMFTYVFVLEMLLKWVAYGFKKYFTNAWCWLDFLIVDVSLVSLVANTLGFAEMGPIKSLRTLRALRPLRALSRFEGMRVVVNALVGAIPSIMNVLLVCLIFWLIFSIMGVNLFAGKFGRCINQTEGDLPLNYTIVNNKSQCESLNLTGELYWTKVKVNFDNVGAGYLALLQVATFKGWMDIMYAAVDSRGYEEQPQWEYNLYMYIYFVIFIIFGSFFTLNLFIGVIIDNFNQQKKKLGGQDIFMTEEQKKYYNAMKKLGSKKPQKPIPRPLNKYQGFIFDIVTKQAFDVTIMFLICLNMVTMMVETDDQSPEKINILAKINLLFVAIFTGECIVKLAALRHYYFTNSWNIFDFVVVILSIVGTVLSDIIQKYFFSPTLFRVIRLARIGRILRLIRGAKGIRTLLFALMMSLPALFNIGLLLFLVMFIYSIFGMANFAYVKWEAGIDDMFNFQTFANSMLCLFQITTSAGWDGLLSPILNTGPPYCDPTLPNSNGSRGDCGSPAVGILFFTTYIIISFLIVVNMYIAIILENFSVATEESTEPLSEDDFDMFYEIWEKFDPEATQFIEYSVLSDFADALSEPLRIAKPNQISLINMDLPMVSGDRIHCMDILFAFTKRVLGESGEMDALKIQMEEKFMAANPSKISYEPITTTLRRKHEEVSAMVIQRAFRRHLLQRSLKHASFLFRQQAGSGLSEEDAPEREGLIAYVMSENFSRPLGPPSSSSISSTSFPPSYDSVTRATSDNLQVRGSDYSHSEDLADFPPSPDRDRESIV

[2] = target: Voltage-gated inwardly rectifying potassium channel KCNH2 (Homo sapiens, UniProt Q12809); assay: Inhibition of human ERG by automated electrophysiology recording; format: toxicity
Sequence of Voltage-gated inwardly rectifying potassium channel KCNH2 (Q12809 whole entry): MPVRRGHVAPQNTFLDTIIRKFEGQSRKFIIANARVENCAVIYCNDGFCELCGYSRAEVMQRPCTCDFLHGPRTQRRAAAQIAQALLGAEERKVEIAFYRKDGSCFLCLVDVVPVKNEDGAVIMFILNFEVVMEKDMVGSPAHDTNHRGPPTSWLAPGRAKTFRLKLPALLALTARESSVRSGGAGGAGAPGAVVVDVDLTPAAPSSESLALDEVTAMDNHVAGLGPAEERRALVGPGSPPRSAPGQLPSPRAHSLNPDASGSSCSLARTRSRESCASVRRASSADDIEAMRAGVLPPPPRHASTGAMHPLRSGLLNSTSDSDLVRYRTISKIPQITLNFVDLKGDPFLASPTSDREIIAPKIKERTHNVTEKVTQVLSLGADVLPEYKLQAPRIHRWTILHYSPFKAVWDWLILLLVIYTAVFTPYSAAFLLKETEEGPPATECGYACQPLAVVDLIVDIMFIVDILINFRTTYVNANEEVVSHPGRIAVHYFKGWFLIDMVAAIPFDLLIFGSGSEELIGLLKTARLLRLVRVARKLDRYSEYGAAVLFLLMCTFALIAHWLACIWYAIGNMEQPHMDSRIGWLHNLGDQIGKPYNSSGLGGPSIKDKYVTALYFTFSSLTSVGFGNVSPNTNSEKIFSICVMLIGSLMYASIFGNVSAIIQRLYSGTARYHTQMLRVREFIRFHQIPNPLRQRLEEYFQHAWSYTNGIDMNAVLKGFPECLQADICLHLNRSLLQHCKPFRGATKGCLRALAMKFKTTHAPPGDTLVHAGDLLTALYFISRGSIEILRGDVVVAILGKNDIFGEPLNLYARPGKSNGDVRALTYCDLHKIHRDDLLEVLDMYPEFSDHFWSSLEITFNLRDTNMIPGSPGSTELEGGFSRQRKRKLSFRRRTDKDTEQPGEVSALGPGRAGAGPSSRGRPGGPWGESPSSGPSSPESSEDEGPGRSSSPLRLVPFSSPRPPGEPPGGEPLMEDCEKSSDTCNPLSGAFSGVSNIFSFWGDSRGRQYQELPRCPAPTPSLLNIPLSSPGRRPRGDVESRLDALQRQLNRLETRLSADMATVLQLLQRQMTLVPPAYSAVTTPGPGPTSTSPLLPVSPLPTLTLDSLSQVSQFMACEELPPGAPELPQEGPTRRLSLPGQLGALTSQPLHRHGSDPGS

Bile salt export pump = Bile salt export pump (Homo sapiens, UniProt O95342); assay: Inhibition of BSEP (unknown origin) by membrane vesicle assay; format: toxicity
Sequence of Bile salt export pump (O95342 whole entry, the tested form may be a part): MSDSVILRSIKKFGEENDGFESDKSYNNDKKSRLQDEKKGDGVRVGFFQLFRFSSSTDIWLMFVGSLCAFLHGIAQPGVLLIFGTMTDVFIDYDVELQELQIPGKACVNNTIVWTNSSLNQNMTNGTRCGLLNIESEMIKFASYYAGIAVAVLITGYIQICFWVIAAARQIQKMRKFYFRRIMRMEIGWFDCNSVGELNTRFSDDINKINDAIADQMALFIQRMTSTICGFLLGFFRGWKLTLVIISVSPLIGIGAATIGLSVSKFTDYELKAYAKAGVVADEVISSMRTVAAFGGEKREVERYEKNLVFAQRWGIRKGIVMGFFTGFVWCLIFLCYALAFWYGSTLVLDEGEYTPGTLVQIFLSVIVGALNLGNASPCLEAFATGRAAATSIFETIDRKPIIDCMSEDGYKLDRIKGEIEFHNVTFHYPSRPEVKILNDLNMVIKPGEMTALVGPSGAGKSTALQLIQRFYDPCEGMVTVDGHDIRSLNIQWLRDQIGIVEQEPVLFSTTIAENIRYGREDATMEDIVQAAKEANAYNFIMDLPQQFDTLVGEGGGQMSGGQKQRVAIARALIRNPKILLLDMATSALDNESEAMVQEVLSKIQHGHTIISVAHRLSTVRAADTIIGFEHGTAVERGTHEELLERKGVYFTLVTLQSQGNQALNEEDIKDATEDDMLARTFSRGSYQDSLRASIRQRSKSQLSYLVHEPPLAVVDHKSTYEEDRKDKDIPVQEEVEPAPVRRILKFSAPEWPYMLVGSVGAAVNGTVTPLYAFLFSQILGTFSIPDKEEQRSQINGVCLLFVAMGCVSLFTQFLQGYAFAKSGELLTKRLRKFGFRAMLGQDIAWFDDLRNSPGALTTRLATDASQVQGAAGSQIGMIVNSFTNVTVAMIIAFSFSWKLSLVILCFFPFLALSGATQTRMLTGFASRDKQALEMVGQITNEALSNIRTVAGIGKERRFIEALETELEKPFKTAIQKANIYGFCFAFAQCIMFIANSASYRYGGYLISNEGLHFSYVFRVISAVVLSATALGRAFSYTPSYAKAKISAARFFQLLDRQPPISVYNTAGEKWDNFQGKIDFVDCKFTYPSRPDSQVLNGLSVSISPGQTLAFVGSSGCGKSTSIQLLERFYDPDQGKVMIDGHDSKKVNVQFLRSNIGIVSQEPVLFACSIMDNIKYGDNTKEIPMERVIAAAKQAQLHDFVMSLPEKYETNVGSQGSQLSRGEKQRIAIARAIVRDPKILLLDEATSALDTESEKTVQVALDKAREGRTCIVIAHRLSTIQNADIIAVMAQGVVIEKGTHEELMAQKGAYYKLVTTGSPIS

[3] = Unbound Cmax in Sprague-Dawley rat at 1.5 mg/kg, iv administered via bolus followed by 9.0 mg/kg, iv administered via infusion for 3 hrs and measured 1 hrs post washout by LC-MS/MS analysis; format: ADME, organism-based; conditions: in vivo
[4] = target: T2, Relaxin receptor 1 (Rattus norvegicus) (UniProt Q6R6I6); assay: In vivo agonist activity at RXFP1 in Sprague-Dawley rat assessed as hemodynamic effect by measuring increase in blood pressure at 1.5 mg/kg, iv administered via bolus followed by 9.0 mg/kg, iv administered via infusion for 3 hrs and measured 1 hrs post washout; format: functional, organism-based
T2 sequence (whole entry): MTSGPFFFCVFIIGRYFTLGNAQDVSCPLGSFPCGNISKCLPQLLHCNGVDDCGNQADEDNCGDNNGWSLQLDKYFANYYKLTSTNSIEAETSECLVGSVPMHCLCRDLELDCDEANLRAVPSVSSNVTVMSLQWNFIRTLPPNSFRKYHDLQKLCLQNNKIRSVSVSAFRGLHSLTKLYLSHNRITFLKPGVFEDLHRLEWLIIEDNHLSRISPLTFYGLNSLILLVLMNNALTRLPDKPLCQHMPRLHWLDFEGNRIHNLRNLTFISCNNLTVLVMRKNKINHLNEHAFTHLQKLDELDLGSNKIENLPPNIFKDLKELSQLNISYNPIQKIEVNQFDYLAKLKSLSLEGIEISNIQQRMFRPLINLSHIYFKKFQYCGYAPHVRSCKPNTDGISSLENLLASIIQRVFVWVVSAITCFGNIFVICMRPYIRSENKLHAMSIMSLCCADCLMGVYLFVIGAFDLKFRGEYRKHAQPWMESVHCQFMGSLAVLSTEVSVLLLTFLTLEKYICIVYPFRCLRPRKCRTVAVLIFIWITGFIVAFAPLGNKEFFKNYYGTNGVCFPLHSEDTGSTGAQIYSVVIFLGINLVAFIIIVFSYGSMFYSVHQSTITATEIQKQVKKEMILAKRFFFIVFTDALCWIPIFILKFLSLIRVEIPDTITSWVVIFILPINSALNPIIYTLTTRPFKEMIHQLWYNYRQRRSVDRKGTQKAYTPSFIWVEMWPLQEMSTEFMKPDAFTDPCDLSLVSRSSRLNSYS

[5] = Lipophilicity, logD of the compound in 1-octanol and phosphate buffer at pH 7.4 incubated for 3 hrs by shake flask method based LC/MS/MS analysis; format: physicochemical; conditions: 1-octanol/phosphate buffer, pH 7.4

- EC50 (Relaxin receptor 1): 0.000398 µM
- fCmax [3]: 10 nM
- logD at 3 h [5]: 4.9
SMILES: COc1cc(F)c(O[C@H]2CC[C@@](C)(C(=O)O)CC2)cc1C(=O)N[C@@H]1[C@H]2CC[C@H](C2)[C@@H]1C(=O)Nc1ccc(F)c(S(F)(F)(F)(F)F)c1
- IC50 [1]: 21 µM
- IC50 [2]: > 39 µM
- IC50 (Bile salt export pump): 23 µM
- Activity [4]: Active
